According to US11660293B2, “Substituted 2-azabicyclo[3.1.1]heptane and 2-azabicyclo[3.2.1]octane derivatives as orexin receptor antagonists” (Chronos Therapeutics Limited, priority 2017, dated 2023):

Assays:
[1] = biological target: human Orexin type 1 receptors (Homo sapiens (Human), UniProt O43613); assay: Scintillation Proximity Assay (SPA) binding assay, [3H]SB-674042 displacement, CHO-hOX1 membranes
[2] = biological target: human Orexin type 2 receptors (Homo sapiens (Human), UniProt O43614); assay: Scintillation Proximity Assay (SPA) binding assay, [3H]EMPA displacement, HEK-hOX2 membranes
Sequence of human Orexin type 2 receptors (O43614 whole entry): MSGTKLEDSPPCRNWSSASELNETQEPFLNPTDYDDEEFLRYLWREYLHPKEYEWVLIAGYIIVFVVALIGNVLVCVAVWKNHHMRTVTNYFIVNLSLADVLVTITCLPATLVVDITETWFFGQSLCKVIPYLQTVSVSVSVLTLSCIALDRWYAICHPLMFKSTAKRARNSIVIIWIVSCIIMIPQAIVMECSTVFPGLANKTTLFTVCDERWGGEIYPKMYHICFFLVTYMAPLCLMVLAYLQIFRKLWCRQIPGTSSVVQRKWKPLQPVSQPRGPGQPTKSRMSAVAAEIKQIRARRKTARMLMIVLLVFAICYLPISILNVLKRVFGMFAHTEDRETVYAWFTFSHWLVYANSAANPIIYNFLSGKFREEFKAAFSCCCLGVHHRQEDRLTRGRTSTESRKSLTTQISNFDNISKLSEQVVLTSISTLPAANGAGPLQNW

Sequence of human Orexin type 1 receptors (O43613 whole entry): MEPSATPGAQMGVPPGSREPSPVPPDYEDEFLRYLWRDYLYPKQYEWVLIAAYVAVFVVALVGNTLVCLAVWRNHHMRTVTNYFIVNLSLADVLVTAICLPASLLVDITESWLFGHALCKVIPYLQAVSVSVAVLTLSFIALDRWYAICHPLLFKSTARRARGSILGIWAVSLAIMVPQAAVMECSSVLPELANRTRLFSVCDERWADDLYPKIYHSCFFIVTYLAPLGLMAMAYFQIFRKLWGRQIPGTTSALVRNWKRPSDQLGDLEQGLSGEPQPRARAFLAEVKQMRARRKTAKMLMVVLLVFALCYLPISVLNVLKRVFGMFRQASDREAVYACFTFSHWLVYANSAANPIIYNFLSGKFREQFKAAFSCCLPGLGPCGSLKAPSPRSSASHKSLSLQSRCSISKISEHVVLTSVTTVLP

| SMILES | OX1 pKi (SPA binding) ([1]; Table 2, [3H]SB-674042 2 nM) | OX2 pKi (SPA binding) ([2]; Table 2, [3H]EMPA 2 nM) | OX1 pKi (SPA binding) ([1]; Table 1, [3H]SB-674042 2 nM) | OX2 pKi (SPA binding) ([2]; Table 1, [3H]EMPA 2 nM) |
| --- | --- | --- | --- | --- |
| C[C@@H]1C2CC(C2)N(C(=O)c2cc(Cl)ccc2-n2nccn2)C1CNc1cnc(C2CC2)cn1 (some centres unmarked) [Example 257] | 7.58 | 5.41 |  |  |
| C[C@@H]1C2CC(C2)N(C(=O)c2cc(F)ccc2-n2nccn2)C1CNc1ccc(C(F)(F)F)cn1 (single isomer, unassigned) [Example 192, N-({(3R,4S) or (3S,4R)2-[5-fluoro-2-(2H-1,2,3-triazol-2-yl)benzoyl]-4-methyl-2-azabicyclo[3.1.1]heptan-3-yl}methyl)-5-(trifluoromethyl)pyridin-2-amine] | 8.13 | 5.19 |  |  |
| Cc1ccc(-c2ncccn2)c(C(=O)N2C3CC(C3)[C@@H](C)C2CNc2cnc(C(F)(F)F)cn2)n1 (mixture of isomers) [Example 248, cis-N-({4-methyl-2-[6-methyl-3-(pyrimidin-2-yl)pyridine-2-carbonyl]-2-azabicyclo[3.1.1]heptan-3-yl}methyl)-5-(trifluoromethyl)pyrazin-2-amine] | 7.76 | 4.58 |  |  |
| Cc1ccc(-n2nccn2)c(C(=O)N2C3CC(C3)[C@@H](C)C2CNc2cc3ccccc3cn2)n1 (stereo partly drawn) [Example 151, cis-N-({4-methyl-2-[6-methyl-3-(2H-1,2,3-triazol-2-yl)pyridine-2-carbonyl]-2-azabicyclo[3.1.1]heptan-3-yl}methyl)isoquinolin-3-amine] | 7.59 | 5.42 |  |  |
| Cc1nc(C(=O)N2C3CC(C3)[C@@H](C)C2CNc2nc3ccc(F)cc3s2)c(-c2ncccn2)s1 (single isomer, unassigned) [Example 164, 6-fluoro-N-({(3R,4S) or (3S,4R)4-methyl-2-[2-methyl-5-(pyrimidin-2-yl)-1,3-thiazole-4-carbonyl]-2-azabicyclo[3.1.1]heptan-3-yl}methyl)-1,3-benzothiazol-2-amine] | 8.93 | 5.68 |  |  |
| Cc1ccc(OCC2[C@H](C)C3CC(C3)N2C(=O)c2nc(C)ccc2-n2nccn2)nc1 (mixture of isomers) [Example 100, cis-4-methyl-2-[6-methyl-3-(2H-1,2,3-triazol-2-yl)pyridine-2-carbonyl]-3-{[(5-methylpyridin-2-yl)oxy]methyl}-2-azabicyclo[3.1.1]heptane] |  |  | 7.03 | 5.96 |
| Cc1nc(C(=O)N2C(COc3cc4ccccc4cn3)CC3CC2C3)c(-c2ccccc2)s1 (centres unmarked) [Example 38] |  |  | 7.61 | 6.9 |
| Cc1ccc(-n2nccn2)c(C(=O)N2C3CC(C3)[C@@H](C)C2CNc2nc3ccccc3o2)n1 (single isomer, unassigned) [Example 226, N-{[(3S,4R) or (3R,3S)-4-methyl-2-[6-methyl-3-(2H-1,2,3-triazol-2-yl)pyridine-2-carbonyl]-2-azabicyclo[3.1.1]heptan-3-yl]methyl}-1,3-benzoxazol-2-amine] | 8.46 | 5.39 |  |  |
| Cc1ccc(-c2ncc(C(F)(F)F)cn2)c(C(=O)N2C3CC(C3)[C@@H](C)C2COc2ccc(F)cc2)n1 (mixture of isomers) [Example 133, cis-3-[(4-fluorophenoxy)methyl]-4-methyl-2-{6-methyl-3-[5-(trifluoromethyl)pyrimidin-2-yl]pyridine-2-carbonyl}-2-azabicyclo[3.1.1]heptane] | 7.25 | 6.79 |  |  |
| Cc1ccc(-n2nccn2)c(C(=O)N2C3CC(C3)[C@@H](C)C2CNc2nc3ccccc3o2)n1 (single isomer, unassigned) [Example 227, N-{[(3R,4S) or (3S,4R)-4-methyl-2-[6-methyl-3-(2H-1,2,3-triazol-2-yl)pyridine-2-carbonyl]-2-azabicyclo[3.1.1]heptan-3-yl]methyl}-1,3-benzoxazol-2-amine] | 7.11 | 4.9 |  |  |
| Cc1nc(C(=O)N2C3CC(C3)[C@@H](C)C2COc2ccc(F)cc2)c(-c2ncccn2)s1 (stereo partly drawn) [Example 94, cis-3-[(4-fluorophenoxy)methyl]-4-methyl-2-[2-methyl-5-(pyrimidin-2-yl)-1,3-thiazole-4-carbonyl]-2-azabicyclo[3.1.1]heptane] |  |  | 8.04 | 6.35 |
| Cc1ccc(-n2nccn2)c(C(=O)N2C3CC(C3)[C@H](C)C2COc2ccc(Cl)cc2)n1 (single isomer, unassigned) [Example 120, (3R,4R) or (3S,4S)-3-[(4-chlorophenoxy)methyl]-4-methyl-2-[6-methyl-3-(2H-1,2,3-triazol-2-yl)pyridine-2-carbonyl]-2-azabicyclo[3.1.1]heptane] | 8 | 5.98 |  |  |
| Cc1nc(C(=O)N2C3CC(C3)[C@H](C)C2COc2ccc(F)cc2)c(-c2ccccn2)s1 (mixture of isomers) [Example 123, trans-3-[(4-fluorophenoxy)methyl]-4-methyl-2-[2-methyl-5-(pyridin-2-yl)-1,3-thiazole-4-carbonyl]-2-azabicyclo[3.1.1]heptane] | 8.02 | 6.12 |  |  |
| C[C@H]1C2CC(C2)N(C(=O)c2cc(F)ccc2-n2nccn2)C1COc1ccc(F)cc1 (mixture of isomers) [Example 128, trans-2-[5-fluoro-2-(2H-1,2,3-triazol-2-yl)benzoyl]-3-{(4-fluorophenoxy)methyl]-4-methyl-2-azabicyclo[3.1.1]heptane] | 6.85 | 5.61 |  |  |
| Cc1nc(C(=O)N2C(COc3ccc(C(F)(F)F)cn3)CC3CC2C3)c(-c2ccccc2)s1 (centres unmarked) [Example 55] |  |  | 7.38 | 6.49 |
| C[C@@H]1C2CC(C2)N(C(=O)c2cc(Cl)ccc2-n2nccn2)C1CNc1ccc(C(F)(F)F)nn1 (stereo partly drawn) [Example 247, cis-N-({2-[5-chloro-2-(2H-1,2,3-triazol-2-yl)benzoyl]-4-methyl-2-azabicyclo[3.1.1]heptan-3-yl}methyl)-6-(trifluoromethyl)pyridazin-3-amine] | 6.74 | 4.88 |  |  |
| Cc1ccc(-c2nccs2)c(C(=O)N2C3CC(C3)[C@H](C)C2COc2ccc(F)cc2)c1 (mixture of isomers) [Example 101, trans-3-[(4-fluorophenoxy)methyl]-4-methyl-2-[5-methyl-2-(1,3-thiazol-2-yl)benzoyl]-2-azabicyclo[3.1.1]heptane] |  |  | 8.02 | 6.15 |
| C[C@@H]1C2CC(C2)N(C(=O)c2nn(C)cc2-c2ccccc2)C1CNc1ccc(C(F)(F)F)cn1 (single isomer, unassigned) [Example 211, N-{[(3S,4R) or (3R,4R)-4-methyl-2-(1-methyl-4-phenyl-1H-pyrazole-3-carbonyl)-2-azabicyclo[3.1.1]heptan-3-yl]methyl}-5-(trifluoromethyl)pyridin-2-amine] | 8.91 | 6.25 |  |  |
| C[C@@H]1C2CC(C2)N(C(=O)c2c(F)cccc2-n2nccn2)C1CNc1cnc(C(F)(F)F)cn1 (some centres unmarked) [Example 253] | 7.88 | 5 |  |  |
| Cc1ccc(-c2ncccn2)c(C(=O)N2C3CC(C3)[C@@H](C)C2CNc2cnc(C(F)(F)F)cn2)n1 (single isomer, unassigned) [Example 250, N-{[(3R,4S) or (3S,4R)-4-methyl-2-[6-methyl-3-(pyrimidin-2-yl)pyridine-2-carbonyl]-2-azabicyclo[3.1.1]heptan-3-yl]methyl}-5-(trifluoromethyl)pyrazin-2-amine] | 7.9 | 4.85 |  |  |
| C[C@@H]1C2CC(C2)N(C(=O)c2cc(Cl)ccc2-n2nccn2)C1CNc1nc2ccc(F)cc2s1 (mixture of isomers) [Example 171, cis-N-({2-[5-chloro-2-(2H-1,2,3-triazol-2-yl)benzoyl]-4-methyl-2-azabicyclo[3.1.1]heptan-3-yl}methyl)-6-fluoro-1,3-benzothiazol-2-amine] | 8.9 | 6.32 |  |  |
| Cc1ccc(-n2nccn2)c(C(=O)N2C3CC(C3)[C@@H](C)C2CNc2ncc(C(F)(F)F)cn2)n1 (mixture of isomers) [Example 193, cis-N-({4-methyl-2-[6-methyl-3-(2H-1,2,3-triazol-2-yl)pyridine-2-carbonyl]-2-azabicyclo[3.1.1]heptan-3-yl}methyl)-5-(trifluoromethyl)pyrimidin-2-amine] | 7.57 | 4.64 |  |  |
| Cc1ccc(-n2nccn2)c(C(=O)N2C3CC(C3)[C@@H](C)C2CNc2nc3ccccc3o2)n1 (stereo in doubt) [Example 225, cis-N-({4-methyl-2-[6-methyl-3-(2H-1,2,3-triazol-2-yl)pyridine-2-carbonyl]-2-azabicyclo[3.1.1]heptan-3-yl}methyl)-1,3-benzoxazol-2-amine] | 8.32 | 5.22 |  |  |
| Cc1ccc(-n2nccn2)c(C(=O)N2C3CC(C3)[C@@H](C)C2COc2ccc(Cl)cn2)n1 (stereo partly drawn) [Example 99, cis-3-{[(5-chloropyridin-2-yl)oxy]methyl}-4-methyl-2-[6-methyl-3-(2H-1,2,3-triazol-2-yl)pyridine-2-carbonyl]-2-azabicyclo[3.1.1]heptane] |  |  | 7.37 | 6.18 |
| Cc1ccc(-n2nccn2)c(C(=O)N2C3CC(C3)[C@@H](C)C2CNc2cnc(C(F)(F)F)cn2)n1 (single isomer, unassigned) [Example 166, N-{[(3S,4R) or (3R,4S)-4-methyl-2-[6-methyl-3-(2H-1,2,3-triazol-2-yl)pyridine-2-carbonyl]-2-azabicyclo[3.1.1]heptan-3-yl]methyl}-5-(trifluoromethyl)pyrazin-2-amine] | 6.99 | 4.29 |  |  |
